Measured values as given in PubChem BioAssay (NCI).
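Test compounds were applied to cells in 96-well plates for 48 hours at 5 doses. Abbreviation: GI50, concentration required for 50% inhibition of growth. TGI: concentration producing complete growth inhibition.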

Legend:
Experiment in all cases: DTP human tumour cell line panel, 48 h
ACHN renal = test system: ACHN renal
MALME-3M melanoma = test system: MALME-3M melanoma
NCI-H226 lung = test system: NCI-H226 lung
NCI-H522 lung = test system: NCI-H522 lung
SR leukemia = test system: SR leukemia
MOLT-4 leukemia = test system: MOLT-4 leukemia
SF-295 CNS = test system: SF-295 CNS
M14 melanoma = test system: M14 melanoma
IGROV1 ovarian = test system: IGROV1 ovarian
RXF 393 renal = test system: RXF 393 renal

Compound	GI50 (ACHN renal) [µM]	TGI (ACHN renal) [µM]	GI50 (MALME-3M melanoma) [µM]	TGI (MALME-3M melanoma) [µM]	GI50 (NCI-H226 lung) [µM]	TGI (NCI-H226 lung) [µM]	GI50 (NCI-H522 lung) [µM]	TGI (NCI-H522 lung) [µM]	GI50 (SR leukemia) [µM]	TGI (SR leukemia) [µM]	GI50 (MOLT-4 leukemia) [µM]	TGI (MOLT-4 leukemia) [µM]	GI50 (SF-295 CNS) [µM]	TGI (SF-295 CNS) [µM]	GI50 (M14 melanoma) [µM]	TGI (M14 melanoma) [µM]	GI50 (IGROV1 ovarian) [µM]	TGI (IGROV1 ovarian) [µM]	GI50 (RXF 393 renal) [µM]	TGI (RXF 393 renal) [µM]
CCOc1cc(/C=N\NC(=O)N/N=C/c2ccc(O)c(OCC)c2)ccc1O	7.99	> 100	0.973	> 100	> 100	> 100	0.281	1.49	0.354	> 39.1	3.41	> 76.8	2.25	> 100	1.63	> 100	4.71	> 100	1.76	7.19
CNCCOc1nc2c3cnccc3cc(-c3cc(OC)c(OC)c(OC)c3)c2c2ccncc12	0.015	0.0598	0.0392	0.194	0.054	0.37	0.0666	0.661	< 0.01		< 0.01	0.0478	0.0211	0.101	0.0233	0.147	0.0281	0.357	0.0469	0.188
c1cnc2c(c1)Nc1cnncc1S2		> 100		> 100		> 100		> 100		> 100		> 100		> 100		> 100		> 100		> 100
C=C=[CH][Sn]([c]1ccccc1)([c]1ccccc1)[c]1ccccc1	1.66	3.16	1.74	3.57	2.28	4.6	1.36	2.85	1.32	8.39	1.14	6.49	1.96	3.89	1.81	3.47	1.63	4.47	1.07	2.28
CCOC(=O)CNC(=O)C(CSC(=O)N(C)O)NC(=O)CCC(N)C(=O)O (configuration not stated)	> 2000	> 2000	> 2000	> 2000	> 2000	> 2000	> 2000	> 2000		1.02	> 2000	> 2000			> 2000	> 2000	> 2000	> 2000	> 2000	> 2000
NNC(=S)N/N=C/C(Cl)=C(\Cl)C(=O)O		> 100		> 100		> 100		> 100		> 100		> 100		> 100		> 100		> 100		> 100
COC(=O)C(=O)C1CCCCC(C2=NC3NN=C(N)N3C2=O)C1=O (configuration not stated)		> 100		> 100		> 100		> 100		> 100		> 100		> 100		> 100		> 100		> 100
O=[N+]([O-])c1cc(/C=N/NS(=O)(=O)c2ccc(F)cc2)c(O)c([N+](=O)[O-])c1		> 100		> 100				46.3		41.2		88.6		> 100		52.2		> 100		84.9
CCOC(=O)N1CCC(=O)C[C@@H]1C/C=C/P1(=O)O[C@H](c2ccccc2)C(C)N1C(C)C (some centres not stated)		> 100		> 100		> 100		> 100		> 100		> 100		> 100				> 100		> 100
CN1CCN(c2ccc3nc4c(nc3c2C(F)(F)F)C(=O)c2ncccc2C4=O)CC1			1.06	2.24	2.13	4.74	1.16	3.55	0.446	> 100	2.28	5.52	1.27	2.58	1.32	2.86	1.41	3.07	1.46	3.15
CCCCCc1c(C)[nH]c(/C=c2\[nH]/c(=C3/C=c4ccccc4=N3)cc2OC)c1C	0.122	1.29			0.0777	3.95	0.101	1.7	0.0335	0.529	0.102	3.85	0.0902	0.452	0.0295	0.375	0.265	5.25	0.086	0.755
CC(C)NC(=O)O/N=C1\CCC2[C@@H]3CC=C4C[C@@H](OC(=O)NC(C)C)CC[C@]4(C)C3CC[C@]12C (some centres not stated)		2.17		0.983		> 100		3.4		7.69		4.81		7.67		1.95				3.54
Oc1[nH]c2ccc(Cl)cc2c1/C=c1/ccc2c(c1)N=C(c1cc(F)cc(F)c1)N=2	7.42	> 100	57.5	> 100	> 100	> 100	2.14	5.74	2.98	7.95	3.32	> 100			2.18	5.66	6.21	> 100	3.37	9.88
